From a melting point compilation (Tetko et al.; mined from patent text by program, amines drawn as free bases though some values may be those of a salt)

| Structure (SMILES) | melting point |
| --- | --- |
| CCc1nc2c(N)nc3ccccc3c2n1CCCCSc1ncccn1 | 182 to 185 °C |
| CSC(=S)Nc1ccc2c(c1)OCO2 | 114 to 115 °C |
| COc1ccc(C2(O)CCCCC2)cn1 | 74 to 75 °C |
| CC(C)[C@H](NC(=O)OCc1ccccc1)C(=O)N[C@@H](Cc1ccccc1)[C@@H](O)[C@@H](O)[C@H](Cc1ccccc1)NC(=O)OC(C)(C)C | 178 to 182 °C |
| CCOC(=O)c1cc2cc(-c3ccccc3OC)ccc2nn1 | 143 to 145 °C |
| CCOC(=O)c1cc(Cl)c(OCCCc2cc(C)no2)c(Cl)c1 | 49 to 50 °C |
| OC1c2cc(OCc3nc4cc(F)ccc4s3)ccc2OCC1Oc1ccccc1 (centres undefined) | 144 to 145 °C |
| CN1c2ccccc2CN(C(=O)c2ccc(C3CCCCC3)cc2)c2ccccc21 | 104 to 106 °C |
| CCOCc1nc2cnc3cc(OCc4ccccc4)ccc3c2n1CC1COC(C)(C)O1 (centres undefined) | 110 to 111 °C |
| Cc1ccc2cccc(OCc3cc(N(C)C(=O)CN4C(=O)c5ccccc5C4=O)ccc3Cl)c2n1 | 120 to 124 °C |
| CCn1c2ccccc2c2[nH]c(=O)c3nccn3c21 | 315 °C |
| Cc1cc(C)n(Cc2ccccc2Cl)c(=O)c1C#N | 243 to 245 °C |
| O=C(O)c1cccc2ncc(C3CCCCC3)cc12 | > 280 °C |
| CNc1ccc(C(=N)NC(=O)OCc2ccccc2)c(F)c1 | 128 to 130 °C |
| CCC(=O)OCOC(=O)C1=C(C)N(COC)C(C)=C(C(=O)O)[C@@H]1c1cccc([N+](=O)[O-])c1 | 54 to 56 °C |
| CCOC(=O)c1nc2c(C)nn(CC)c2nc1OCC | 81 to 82 °C |
| Cc1cc(C)cc(Sc2c(C)c[nH]c(=O)c2N)c1 | 208 to 210 °C |
| Oc1ccc2c(-c3ccccc3)coc2c1 | 138 to 143 °C |
| CN(Cc1ccccc1)c1cc(C(=O)O)ccc1C(N)C(=O)O (centres undefined) | 193 °C |
| O=c1nc(-c2ccccc2F)c2c3c(sc2[nH]1)CCCC3 | 274 to 277 °C |

| Structure (SMILES) | melting point |
| --- | --- |
| CC(=O)Oc1ccc(C2COc3c(ccc(OC(C)=O)c3C)C2O)cc1 (centres undefined) | 135 to 137 °C |
| N#Cc1nn(-c2c(Cl)cc(C(F)(F)F)cc2Cl)c(C(=O)C(F)F)c1Cl | 124 to 125 °C |
| CCc1n[nH]c(-c2ccccc2)c1NC(=O)c1ccccc1 | 215 to 216 °C |
| CCC(CC)Nc1c([N+](=O)[O-])cc(C(C)C)c(C=CN(C)C)c1[N+](=O)[O-] | 88 to 89.5 °C |
| CONS(=O)(=O)c1cccc(C)c1 | 90 to 92 °C |
| CC(=O)OC1C(C)OC(n2cc(F)c(=O)[nH]c2=O)C1OC(C)=O (centres undefined) | 176 to 177 °C |
| CCCCCOc1cc(C(=O)O)cc(N)c1C(=O)c1ccccc1 | 168 to 170 °C |
| Cc1ncc(CCCN2C(=O)c3ccccc3C2=O)s1 | 75 °C |
| CSc1ccc(Oc2ccc(N)cc2)c(C)c1 | 162 °C |
| O=C(O)C(=O)CC(=O)c1cn(Cc2ccc3ccccc3n2)c2ccccc2c1=O | > 300 °C |
| Cc1noc(C)c1-c1ccccc1C=NC(c1ccccc1)c1ccccc1 | 165 to 167 °C |
| O=C1c2cc(O)ccc2OCC1Cc1cccnc1 (centres undefined) | 163 to 166 °C |
| CC(C)[C@H](NC(=O)[C@H](CC(=O)OC(C)(C)C)NC(=O)CNC(=O)c1csc(NC(=O)NCc2ccccc2)n1)C(=O)OC(C)(C)C | 108 to 110 °C |
| COc1ccc(S(=O)(=O)N2C(=O)C(O[Si](C)(C)C)(c3ccccc3C(F)(F)F)c3cc(Cl)ccc32)c(OC)c1 (centres undefined) | 144 to 145 °C |
| CCc1c(N)cccc1NC(=O)OC(C)(C)C | 109 to 110 °C |
| CCC(COC)Nc1nc(C)nc2c1nnn2-c1ccc(C(C)C)cc1Br (centres undefined) | 132 to 134 °C |
| COC(=O)c1cc(C(=O)OC)cc(-c2ccccc2)c1 | 91 to 92 °C |
| O=c1c(Cc2ccncc2)c(-c2ccccc2)[nH]c2ccccc12 | 222 to 224 °C |
| Cc1ccc(-c2cc(N3CCCC3)c(C#N)c3c2-c2ccccc2C3=O)cc1 | 162 to 164 °C |
